US20240294572A1, “Antimicrobial Peptides” (priority 2021, published 2024)
Values after ≈ are worked out from the molar mass of the structure shown. Non-standard residues stand in square brackets, D forms with d. Residues, ends and D or L forms follow the SMILES beside them. *: point of attachment. Octanoyl = CCCCCCCC(=O)*

Legend:
S. aureus USA400 = format: cell-based
Method: (§1) The antibacterial activity of peptides was evaluated using a standard broth microdilution protocol (Clinical Laboratories Standards Institute (CLSI): M07-A10. Methods for Dilution Antimicrobial Susceptibility Tests for Bacteria that grow aerobically; Approved Standard, Tenth Edition, 2015) with minor modifications as described (Mishra, et al. (2019) Proc. Natl. Acad. Sci., 116:13517-13522). In brief, peptides (10 μL per well) with 2-fold dilutions were made in 96-well polystyrene microplates. Subsequently, the logarithmic phase bacterial cultures (i.e., optical density at 600 nm ˜0.5) were diluted to 0.001 OD and aliquoted to 90 μL per well. The plates were incubated overnight at 37°° C. Bacterial controls were treated with water, and the wells containing only the TSB media were used as blank. Positive controls included the parent peptide LL-37 as well as KR12. Post incubation, the plates were read at 630 nm using ChroMate® 4300 Microplate Reader (Awareness Technology, FL).

S. aureus Newman = format: cell-based
Method: as §1

S. aureus Mu50 = format: cell-based
Method: as §1

S. aureus USA200 = format: cell-based
Method: as §1

[1] = tested on: human red blood cells (hRBCs); format: cell-based; settings: red cells of human, 1 h
Method: Hemolytic assays of peptides were performed as described (Lakshmaiah, et al. (2020) Proc. Natl. Acad. Sci., 117:19446-19454). Briefly, human red blood cells (hRBCs) were obtained from UNMC Blood Bank. The cells were washed 3× with isotonic saline (0.9% NaCl) and diluted to 2% (v/v). Peptides at various concentrations were added to the 2% blood cells and incubated at 37° C. for 1 hour. Post-incubation, the plates were spun at 2000 rpm for 10 minutes; aliquots of the supernatant were carefully transferred to a fresh 96-well microplate. The amount of cells lysed is proportional to the hemoglobin released and was measured at 545 nm using a ChroMate® microplate reader (Awareness Technology, FL). The percent lysis was calculated by assuming 100% release when human blood cells were treated with 1% Triton™ X-100, and 0% release when incubated with PBS. The peptide concentration that caused 50% lysis of hRBCs is defined as HC50. The cell selectivity index (CSI) was calculated as the ratio between HC50 and the MIC of the corresponding peptide against MRSA.

[2] = tested on: Klebsiella pneumonia ATCC 13883; test: Antibacterial broth microdilution MIC; format: cell-based
Method: as §1

E. coli ATCC 25922 = format: cell-based
Method: as §1
(§2) To study the influence of medium conditions on the antimicrobial activity of peptides against S. aureus USA300, different pH, sodium chloride (NaCl), human sera were included into the antibacterial assays. Control experiments in TSB without any additions (pH 7.4) were set up in the same manner. In addition, antimicrobial activities of human LL-37, KR12, and C10-KR8d were compared in 10%, 50%, and 100% TSB as well as in TSB and MHB using E. coli ATCC 25922 and S. aureus USA300 LAC.

S. aureus USA300 LAC [3] = test: Bacterial membrane permeation (propidium iodide); format: cell-based; settings: 12.5 μM
Method: The experiment was performed as described with minor modifications (Mishra, et al. (2019) Proc. Natl. Acad. Sci., 116:13517-13522). Serially diluted 10×peptides (10 μL each well) were created in 96-well microtiter plates. Propidium iodide (2 μL) at a fixed concentration of 20 μM was added to each well followed by 88 μL of the exponential phase S. aureus USA300 culture (a final OD600˜0.1 in TSB media or PBS). Both daptomycin (98%, TSZChem, MA) and rifamycin (98%, Alfa Aesar, MA) were used as controls. The plate was incubated at 37° C. with continuous shaking at 100 rpm in a FLUOstar® Omega (BMG LABTECH, NC) microplate reader. The samples fluorescence was read at every 5 minutes for 24 cycles with excitation and emission wavelengths of 584 and 620 nm, respectively. Plots were generated using average values from the experiments using GraphPad Prism 7.

S. aureus USA300 LAC [4] = test: Bacterial resistance development, multiple passage experiment; format: cell-based; settings: 14 passages/days at sub-MIC
Method: This experiment was performed similar to the MIC determination with a few modifications as described (Mishra, et al. (2019) Proc. Natl. Acad. Sci., 116:13517-13522). In short, an exponential phase S. aureus USA300 culture (i.e., optical density at 600 nm≈0.5) was diluted and partitioned into a 96-well polystyrene microplate with ˜10^5 bacteria per well (90 μL aliquots). After treatment with 10 μL of peptide or nafcillin solutions at various concentrations, microplates were incubated at 37° C. overnight and read on a ChroMate® 4300 Microplate Reader at 630 nm (Awareness Technology, FL). Of the wells with sub-MIC levels of the peptides that retained growth, approximately half of the control wells were again reinoculated in fresh TSB with sub-MIC concertation of peptides or antibiotics to attain exponential phase for MIC determination. Up to 15 serial passages of the bacteria cultures were conducted. The increase in the fold change (MIC on given passage/MIC recorded in first day of passage) was used to determine the degree of drug resistance.

S. aureus USA300 = test: Bacterial membrane depolarization (DiBAC4(3)); format: cell-based; settings: 3.1, 6.25, 12.5, and 25 μM; 40 minutes
Method: The experiment was conducted as described (Marks, et al. (2013) PLOS One 8:e63158). In brief, an overnight culture of S. aureus USA300 was subcultured in a fresh TSB medium and grown to the exponential phase. Cells were spun using centrifugation, washed 2× with PBS, resuspended in twice the volume of PBS containing 25 mM glucose, and incubated at 37° C. for 15 minute. For membrane depolarization measurements, 500 nM (final concentration) of the dye DiBAC4 (3) bis(1,3-dibutylbarbituric acid) trimethine oxonol (ANASPEC, CA) was added, and the reaction mixture was vortexed gently. Aliquots of 90 μL of the energized bacteria solution were loaded to the wells, and the plate was fed into a FLUOstar® Omega microplate reader. Fluorescence was read for 20 minutes at excitation and emission wavelengths of 485 and 520 nm, respectively, to get dye normalization. Then, 10 μL of the peptide solution was added and gently mixed. Fluorescence readings were recorded for 40 minutes, where Triton™ X-100 (0.1%) was used as a positive control.

[5] = tested on: clinical strains of S. aureus, including USA200, USA400, Newman, and Mu50; format: cell-based
Method: as §1

HaCaT cells = format: cell-based, human
Method: Peptides were assessed for potential cytotoxicity using HaCaT cells (Addexbio Technologies, CA). Briefly, cells were seeded at a density of 1×10^4 per well in a tissue culture 96-well plate. DMEM was supplemented with 10% fetal bovine serum (FBS) and incubated at 37° C. in a 5% CO2 atmosphere for 24 hours. Culture medium was aspirated and replaced with fresh serum free media. Cells were exposed to different concentrations of peptides for 1 hour at 37° C. in a 5% CO2 atmosphere. Post-incubation, the cells were washed and incubated with 100 μL of DMEM media containing 20 μL of MTS reagent for 2 hours at 37° C. Absorbance was read at 492 nm using a ChroMate® microplate reader (Awareness Technology, FL).

S. aureus USA300 LAC [6] = format: cell-based; settings: for MIC (μM) SA: USA300
Method: as §1, §2

P. aeruginosa PAO1 = format: cell-based
Method: as §1

Q: How did the “Minimal inhibitory concentration, USA400” value (S. aureus USA400) turn out when `CCCCCCCC(=O)N[C@H](CCCCN)C(=O)N[C@H](CCCNC(=N)N)C(=O)N[C@@H](C(=O)N[C@H](Cc1c[nH]c2ccccc12)C(=O)N[C@H](CCC(N)=O)C(=O)N[C@H](CCCNC(=N)N)C(=O)N[C@@H](C(=O)N[C@H](CCCCN)C(=O)N[C@H](CC(=O)O)C(=O)N[C@H](Cc1ccccc1)C(N)=O)[C@H](C)CC)[C@H](C)CC` [Peptide C8-KR10d] (Octanoyl-[dK][dR][dI][dW][dQ][dR][dI][dK][dD][dF]-NH2) was run?
A: 3.1 µM (≈ 4.7 µg/mL)

Q: What about the “Minimal inhibitory concentration, Newman” value (S. aureus Newman) of the same molecule?
A: 3.1 µM (≈ 4.7 µg/mL)

Q: What about the “Minimal inhibitory concentration, Mu50” value (S. aureus Mu50) of the same molecule?
A: 3.1 µM (≈ 4.7 µg/mL)

Q: And the “Minimal inhibitory concentration, USA200” value (S. aureus USA200)?
A: 3.1 µM (≈ 4.7 µg/mL)

Q: And the “HC50” value [1]?
A: 150 µM

Q: What about the “MIC (μM) KP” value [2] of the same molecule?
A: 12.5 µM (≈ 18.9 µg/mL)

Q: What about the “MIC (μM) EC” value (E. coli ATCC 25922) of the same molecule?
A: 6.2 µM (≈ 9.39 µg/mL)

Q: How did the “membrane permeation (propidium iodide fluorescence)” value (S. aureus USA300 LAC [3]) turn out when `CO[C@H]1/C=C/O[C@@]2(C)Oc3c(C)c(O)c4c(O)c(cc(O)c4c3C2=O)NC(=O)/C(C)=C\C=C\[C@H](C)[C@H](O)[C@@H](C)[C@@H](O)[C@@H](C)[C@H](OC(C)=O)[C@@H]1C` [rifamycin, reference compound] was run?
A: unable to achieve the same effect

Q: Which “MIC increase in multiple passage experiment” value (S. aureus USA300 LAC [4]) does the source give for `CCOc1ccc2ccccc2c1C(=O)N[C@@H]1C(=O)N2[C@@H]1SC(C)(C)[C@@H]2C(=O)O` [nafcillin, reference compound] here?
A: over 30 fold

Q: `CCCCCCCCCC(=O)N[C@@H](Cc1c[nH]c2ccccc12)C(=O)N[C@H](CC(N)=O)C(=O)N[C@@H](CC(=O)O)C(=O)N[C@@H]1C(=O)NCC(=O)N[C@@H](CCCN)C(=O)N[C@@H](CC(=O)O)C(=O)N[C@H](C)C(=O)N[C@@H](CC(=O)O)C(=O)NCC(=O)N[C@H](CO)C(=O)N[C@@H]([C@H](C)CC(=O)O)C(=O)N[C@@H](CC(=O)c2ccccc2N)C(=O)O[C@@H]1C` [daptomycin, reference compound] was tested. Which “membrane depolarization ability (order)” value (S. aureus USA300) did it give?
A: Triton™ X-100>17BIPHE2>C10-KR8d>daptomycin

Q: Which results are given for `CCCCCCCC(=O)N[C@@H](CCCCN)C(=O)N[C@@H](CCCNC(=N)N)C(=O)N[C@H](C(=O)N[C@@H](Cc1c[nH]c2ccccc12)C(=O)N[C@@H](CCC(N)=O)C(=O)N[C@@H](CCCNC(=N)N)C(=O)N[C@H](C(=O)N[C@@H](CCCCN)C(=O)N[C@@H](CC(=O)O)C(=O)N[C@@H](Cc1ccccc1)C(N)=O)[C@@H](C)CC)[C@@H](C)CC` [Peptide C8-KR10] (Octanoyl-KRIWQRIKDF-NH2)?
A: Minimal inhibitory concentration, USA400 (S. aureus USA400): 3.1 µM (≈ 4.7 µg/mL); Minimal inhibitory concentration, Newman (S. aureus Newman): 6.2 µM (≈ 9.39 µg/mL); Minimal inhibitory concentration, Mu50 (S. aureus Mu50): 6.2 µM (≈ 9.39 µg/mL); Minimal inhibitory concentration, USA200 (S. aureus USA200): 6.2 µM (≈ 9.39 µg/mL); MIC against clinical strains of S. aureus [5]: 1.6 to 6.2 µM; HC50 [1]: 250 µM; relative toxicity to HaCaT cells (HaCaT cells): slightly less toxic than C8-KR10d; MIC (μM) KP [2]: 25 µM (≈ 37.9 µg/mL); MIC (μM) SA (S. aureus USA300 LAC [6]): 3.1 to 6.2 µM; Minimal inhibitory concentration (MIC), pH = 6.8 (S. aureus USA300 LAC [6]; USA300, pH 6.8): 12.5 μM

Q: How did the “MIC (μM) PA” value (P. aeruginosa PAO1) turn out when `CCCCCCCC(=O)N[C@@H](CCCCN)C(=O)N[C@@H](CCCNC(=N)N)C(=O)N[C@H](C(=O)N[C@@H](Cc1c[nH]c2ccccc12)C(=O)N[C@@H](CCC(N)=O)C(=O)N[C@@H](CCCNC(=N)N)C(N)=O)[C@@H](C)CC` [Peptide C8-KR6] (Octanoyl-KRIWQR-NH2) was run?
A: >50 µM

Q: And the “HC50” value [1]?
A: >200 µM

Q: What about the “MIC (μM) KP” value [2] of the same molecule?
A: >50 µM

Q: What about the “MIC (μM) SA” value (S. aureus USA300 LAC [6]) of the same molecule?
A: >50 µM

Q: And the “MIC (μM) EC” value (E. coli ATCC 25922)?
A: 50 µM (≈ 50.6 µg/mL)
